Test results from patent publication US6552196B2, “Quinolone carboxylic acid derivatives” (Dong Wha Pharmaceutical Industrial Co., Ltd., priority 1997, dated 2003).
In brackets after ≈: the same amount, converted by molar mass.

Tests used:
Assay type in all cases: cell-based
[1] = tested on: Enterobacter clocae 1321E; assay: In vitro antibacterial activity (MIC), agar dilution; conditions: 2-fold agar dilution, Muller-Hinton agar, 18 hours at 37° C., read-out: minimum inhibitory concentration (MIC)
Experimental: (§1) 10^7 cfu/ml of bacteria were inoculated and cultured for 18 hours at 37° C. and then the antibacterial activities were measured. For the methicillin resistant strains the activities were measured after 48 hours of cultivation at 30° C. Hoechst Standard strains were used for the testings.

Enterobacter clocae P99 = assay: as above; conditions: 2-fold agar dilution, Muller-Hinton agar, 18 hours at 37° C., read-out: minimum inhibitory concentration (MIC)
Experimental: as §1

Esherichia coli 078 = assay: as above; conditions: 2-fold agar dilution, Muller-Hinton agar, 18 hours at 37° C., read-out: minimum inhibitory concentration (MIC)
Experimental: as §1

Esherichia coli 1507E = assay: as above; conditions: 2-fold agar dilution, Muller-Hinton agar, 18 hours at 37° C., read-out: minimum inhibitory concentration (MIC)
Experimental: as §1

Esherichia coli DC0 = assay: as above; conditions: 2-fold agar dilution, Muller-Hinton agar, 18 hours at 37° C., read-out: minimum inhibitory concentration (MIC)
Experimental: as §1

Esherichia coli TEM = assay: as above; conditions: 2-fold agar dilution, Muller-Hinton agar, 18 hours at 37° C., read-out: minimum inhibitory concentration (MIC)
Experimental: as §1

[2] = tested on: Klebsiella aerogenes 1522E; assay: as above; conditions: 2-fold agar dilution, Muller-Hinton agar, 18 hours at 37° C., read-out: minimum inhibitory concentration (MIC)
Experimental: as §1

Klebsiella oxytoca 1082E = assay: as above; conditions: 2-fold agar dilution, Muller-Hinton agar, 18 hours at 37° C., read-out: minimum inhibitory concentration (MIC)
Experimental: as §1

[3] = tested on: Pseudomonas aeruginosa 1592E; assay: as above; conditions: 2-fold agar dilution, Muller-Hinton agar, 18 hours at 37° C., read-out: minimum inhibitory concentration (MIC)
Experimental: as §1

[4] = tested on: Pseudomonas aeruginosa 1771M; assay: as above; conditions: Pseudomonas aeruginosa, 1771M, 18 h, read-out: minimum inhibitory concentration (MIC)
Experimental: as §1

[5] = tested on: Pseudomonas aeruginosa 1771; assay: as above; conditions: 2-fold agar dilution, Muller-Hinton agar, 18 hours at 37° C., read-out: minimum inhibitory concentration (MIC)
Experimental: as §1

[6] = tested on: Pseudomonas aeruginosa 9027; assay: as above; conditions: 2-fold agar dilution, Muller-Hinton agar, 18 hours at 37° C., read-out: minimum inhibitory concentration (MIC)
Experimental: as §1

Salmonella typhimurium = assay: as above; conditions: Salmonella enterica, 2-fold agar dilution, Muller-Hinton agar, 18 hours at 37° C., read-out: minimum inhibitory concentration (MIC)
Experimental: as §1

[7] = tested on: Staphylococcus aureus 285; assay: as above; conditions: 2-fold agar dilution, Muller-Hinton agar, 18 hours at 37° C., read-out: minimum inhibitory concentration (MIC)
Experimental: as §1

[8] = tested on: Staphylococcus aureus 503; assay: as above; conditions: 2-fold agar dilution, Muller-Hinton agar, 18 hours at 37° C., read-out: minimum inhibitory concentration (MIC)
Experimental: as §1

[9] = tested on: Staphylococcus aureus SG511; assay: as above; conditions: 2-fold agar dilution, Muller-Hinton agar, 18 hours at 37° C., read-out: minimum inhibitory concentration (MIC)
Experimental: as §1

[10] = tested on: Streptococcus faecium MD 8b; assay: as above; conditions: Enterococcus faecium, MD8B, 2-fold agar dilution, Muller-Hinton agar, 18 hours at 37° C., read-out: minimum inhibitory concentration (MIC)
Experimental: as §1

[11] = tested on: Streptococcus pyogens 308A; assay: as above; conditions: 2-fold agar dilution, Muller-Hinton agar, 18 hours at 37° C., read-out: minimum inhibitory concentration (MIC)
Experimental: as §1

[12] = tested on: Streptococcus pyogens 77A; assay: as above; conditions: 2-fold agar dilution, Muller-Hinton agar, 18 hours at 37° C., read-out: minimum inhibitory concentration (MIC)
Experimental: as §1

[13] = tested on: Staphylococcus aureus 121E; assay: In vitro antibacterial activity against resistant strains (MIC); conditions: resistant strain Staphylococcus aureus 121E; 2-fold agar dilution; methicillin resistant strains 48 hours at 30° C.; read-out: minimum inhibitory concentration (MIC)
Experimental: as §1

[14] = tested on: Staphylococcus aureus 179; assay: as above; conditions: resistant strain Staphylococcus aureus 179; 2-fold agar dilution; methicillin resistant strains 48 hours at 30° C.; read-out: minimum inhibitory concentration (MIC)
Experimental: as §1

[15] = tested on: Staphylococcus aureus 208E; assay: as above; conditions: resistant strain Staphylococcus aureus 208E; 2-fold agar dilution; methicillin resistant strains 48 hours at 30° C.; read-out: minimum inhibitory concentration (MIC)
Experimental: as §1

[16] = tested on: Staphylococcus aureus 241; assay: as above; conditions: resistant strain Staphylococcus aureus 241; 2-fold agar dilution; methicillin resistant strains 48 hours at 30° C.; read-out: minimum inhibitory concentration (MIC)
Experimental: as §1

[17] = tested on: Staphylococcus aureus 256E; assay: as above; conditions: resistant strain Staphylococcus aureus 256E; 2-fold agar dilution; methicillin resistant strains 48 hours at 30° C.; read-out: minimum inhibitory concentration (MIC)
Experimental: as §1

[18] = tested on: Staphylococcus aureus 293; assay: as above; conditions: resistant strain Staphylococcus aureus 293; 2-fold agar dilution; methicillin resistant strains 48 hours at 30° C.; read-out: minimum inhibitory concentration (MIC)
Experimental: as §1

[19] = tested on: Staphylococcus aureus 303; assay: as above; conditions: resistant strain Staphylococcus aureus 303; 2-fold agar dilution; methicillin resistant strains 48 hours at 30° C.; read-out: minimum inhibitory concentration (MIC)
Experimental: as §1

[20] = tested on: Staphylococcus aureus 690E; assay: as above; conditions: resistant strain Staphylococcus aureus 690E; 2-fold agar dilution; methicillin resistant strains 48 hours at 30° C.; read-out: minimum inhibitory concentration (MIC)
Experimental: as §1

[21] = tested on: Staphylococcus aureus 692E; assay: as above; conditions: resistant strain Staphylococcus aureus 692E; 2-fold agar dilution; methicillin resistant strains 48 hours at 30° C.; read-out: minimum inhibitory concentration (MIC)
Experimental: as §1

[22] = tested on: Staphylococcus aureus 693E; assay: as above; conditions: resistant strain Staphylococcus aureus 693E; 2-fold agar dilution; methicillin resistant strains 48 hours at 30° C.; read-out: minimum inhibitory concentration (MIC)
Experimental: as §1

[23] = tested on: Staphylococcus aureus 694E; assay: as above; conditions: resistant strain Staphylococcus aureus 694E; 2-fold agar dilution; methicillin resistant strains 48 hours at 30° C.; read-out: minimum inhibitory concentration (MIC)
Experimental: as §1

[24] = tested on: Staphylococcus aureus 695E; assay: as above; conditions: resistant strain Staphylococcus aureus 695E; 2-fold agar dilution; methicillin resistant strains 48 hours at 30° C.; read-out: minimum inhibitory concentration (MIC)
Experimental: as §1

[25] = tested on: Staphylococcus aureus 697E; assay: as above; conditions: resistant strain Staphylococcus aureus 697E; 2-fold agar dilution; methicillin resistant strains 48 hours at 30° C.; read-out: minimum inhibitory concentration (MIC)
Experimental: as §1

[26] = tested on: Staphylococcus aureus 701E; assay: as above; conditions: resistant strain Staphylococcus aureus 701E; 2-fold agar dilution; methicillin resistant strains 48 hours at 30° C.; read-out: minimum inhibitory concentration (MIC)
Experimental: as §1

[27] = tested on: Staphylococcus aureus 703E; assay: as above; conditions: resistant strain Staphylococcus aureus 703E; 2-fold agar dilution; methicillin resistant strains 48 hours at 30° C.; read-out: minimum inhibitory concentration (MIC)
Experimental: as §1

[28] = tested on: Staphylococcus aureus 8236; assay: as above; conditions: resistant strain Staphylococcus aureus 8236; 2-fold agar dilution; methicillin resistant strains 48 hours at 30° C.; read-out: minimum inhibitory concentration (MIC)
Experimental: as §1

[29] = tested on: Staphylococcus aureus 88E; assay: as above; conditions: resistant strain Staphylococcus aureus 88E; 2-fold agar dilution; methicillin resistant strains 48 hours at 30° C.; read-out: minimum inhibitory concentration (MIC)
Experimental: as §1

[30] = tested on: Staphylococcus epidermidis 178; assay: as above; conditions: resistant strain Staphylococcus epidermidis 178; 2-fold agar dilution; methicillin resistant strains 48 hours at 30° C.; read-out: minimum inhibitory concentration (MIC)
Experimental: as §1

[31] = tested on: Staphylococcus epidermidis 291; assay: as above; conditions: resistant strain Staphylococcus epidermidis 291; 2-fold agar dilution; methicillin resistant strains 48 hours at 30° C.; read-out: minimum inhibitory concentration (MIC)
Experimental: as §1

| SMILES | MIC [1] [µg/mL] | MIC (Enterobacter clocae P99) [µg/mL] | MIC (Esherichia coli 078) [µg/mL] | MIC (Esherichia coli 1507E) [µg/mL] | MIC (Esherichia coli DC0) [µg/mL] | MIC (Esherichia coli TEM) [µg/mL] | MIC [2] [µg/mL] | MIC (Klebsiella oxytoca 1082E) [µg/mL] | MIC [3] [µg/mL] | MIC [4] [µg/mL] | MIC [5] [µg/mL] | MIC [6] [µg/mL] | MIC (Salmonella typhimurium) [µg/mL] | MIC [7] [µg/mL] | MIC [8] [µg/mL] | MIC [9] [µg/mL] | MIC [10] [µg/mL] | MIC [11] [µg/mL] | MIC [12] [µg/mL] | MIC [13] [µg/mL] | further results |
| --- | --- | --- | --- | --- | --- | --- | --- | --- | --- | --- | --- | --- | --- | --- | --- | --- | --- | --- | --- | --- | --- |
| CON=C1CN(c2c(F)c(N)c3c(=O)c(C(=O)O)cn(C4CC4)c3c2F)CC12CN(C)C2 [Example 11, 1-Cyclopropyl-5-amino-6,8-difluoro-7-[8-(methoxyimino)-2-methyl-2,6-diazaspiro[3,4]oct-6-yl]-4-oxo-1,4-dihydro-3-quinolinecarboxylic acid] | 0.004 (≈ 0.00894 µM) | 0.013 (≈ 0.0291 µM) | < 0.002 | 0.013 (≈ 0.0291 µM) | 0.098 (≈ 0.219 µM) | 0.013 (≈ 0.0291 µM) | 0.049 (≈ 0.11 µM) | < 0.002 | 0.781 (≈ 1.75 µM) | 0.391 (≈ 0.874 µM) | 0.781 (≈ 1.75 µM) | 0.781 (≈ 1.75 µM) | 0.007 (≈ 0.0156 µM) | 0.007 (≈ 0.0156 µM) | 0.004 (≈ 0.00894 µM) | < 0.002 | 0.049 (≈ 0.11 µM) | 0.013 (≈ 0.0291 µM) | 0.004 (≈ 0.00894 µM) | 0.013 (≈ 0.0291 µM) | MIC [14]: 0.195 µg/mL (≈ 0.436 µM); MIC [15]: 0.013 µg/mL (≈ 0.0291 µM); MIC [16]: 0.195 µg/mL (≈ 0.436 µM); MIC [17]: 0.007 µg/mL (≈ 0.0156 µM); MIC [18]: 0.195 µg/mL (≈ 0.436 µM); MIC [19]: 0.195 µg/mL (≈ 0.436 µM); MIC [20]: 0.007 µg/mL (≈ 0.0156 µM); MIC [21]: 0.007 µg/mL (≈ 0.0156 µM); MIC [22]: 0.013 µg/mL (≈ 0.0291 µM); MIC [23]: 0.013 µg/mL (≈ 0.0291 µM); MIC [24]: 0.013 µg/mL (≈ 0.0291 µM); MIC [25]: 0.004 µg/mL (≈ 0.00894 µM); MIC [26]: 0.013 µg/mL (≈ 0.0291 µM); MIC [27]: 0.013 µg/mL (≈ 0.0291 µM); MIC [28]: 0.195 µg/mL (≈ 0.436 µM); MIC [29]: 0.007 µg/mL (≈ 0.0156 µM); MIC [30]: 0.781 µg/mL (≈ 1.75 µM); MIC [31]: 0.781 µg/mL (≈ 1.75 µM) |
| C[C@@H]1CN(c2c(F)c(N)c3c(=O)c(C(=O)O)cn(C4CC4)c3c2F)C[C@H](C)N1 [Sparfloxacin, sparfloxacin, reference compound] | 0.004 (≈ 0.0102 µM) | 0.007 (≈ 0.0178 µM) | 0.004 (≈ 0.0102 µM) | 0.025 (≈ 0.0637 µM) | 0.195 (≈ 0.497 µM) | 0.013 (≈ 0.0331 µM) | 0.025 (≈ 0.0637 µM) | < 0.002 | 0.781 (≈ 1.99 µM) | 0.195 (≈ 0.497 µM) | 0.781 (≈ 1.99 µM) | 0.781 (≈ 1.99 µM) | 0.007 (≈ 0.0178 µM) | 0.049 (≈ 0.125 µM) | 0.049 (≈ 0.125 µM) | 0.098 (≈ 0.25 µM) | 0.391 (≈ 0.996 µM) | 0.391 (≈ 0.996 µM) | 0.195 (≈ 0.497 µM) | 0.098 (≈ 0.25 µM) | MIC [14]: 6.25 µg/mL (≈ 15.9 µM); MIC [15]: 0.098 µg/mL (≈ 0.25 µM); MIC [16]: 6.25 µg/mL (≈ 15.9 µM); MIC [17]: 0.098 µg/mL (≈ 0.25 µM); MIC [18]: 6.25 µg/mL (≈ 15.9 µM); MIC [19]: 3.12 µg/mL (≈ 7.96 µM); MIC [20]: 0.049 µg/mL (≈ 0.125 µM); MIC [21]: 0.049 µg/mL (≈ 0.125 µM); MIC [22]: 0.049 µg/mL (≈ 0.125 µM); MIC [23]: 0.098 µg/mL (≈ 0.25 µM); MIC [24]: 0.049 µg/mL (≈ 0.125 µM); MIC [25]: 0.049 µg/mL (≈ 0.125 µM); MIC [26]: 0.098 µg/mL (≈ 0.25 µM); MIC [27]: 0.098 µg/mL (≈ 0.25 µM); MIC [28]: 6.25 µg/mL (≈ 15.9 µM); MIC [29]: 0.098 µg/mL (≈ 0.25 µM); MIC [30]: 6.25 µg/mL (≈ 15.9 µM); MIC [31]: 6.25 µg/mL (≈ 15.9 µM) |
